Data as given in PubChem BioAssay AID330 (DTP/NCI, 2004).
Values joined by “and” are separate entries in the source; they are usually repeats but may differ in a detail not shown here. Identical values can stand only once. Inconclusive results and toxic doses are left out.

System: P388 leukemia ip, CD2F1 mice, survival T/C
Experiment: NCI In Vivo Anticancer Drug Screen. Data for tumor model P388 Leukemia (intraperitoneal) in CD2F1 (CDF1) mice
Settings: endpoint: median survival time, higher = longer survival
How it was run: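 Mice carrying the transplanted tumor received test compound or vehicle. Survival was recorded in each group, and the value is the treated-group measurement divided by that of the vehicle-treated control group.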

[1] = dose: 60.0 mg/kg/injection, schedule: Q01DX005 (ip), vehicle: saline with Tween-80
[2] = dose: 120.0 mg/kg/injection, schedule: Q01DX005 (ip), vehicle: saline with Tween-80
[3] = dose: 240.0 mg/kg/injection, schedule: Q01DX005 (ip), vehicle: saline with Tween-80
[4] = dose: 12.5 mg/kg/injection, schedule: Q01DX009 (ip), vehicle: Klucel (hydroxypropylcellulose) (HPC)
[5] = dose: 25.0 mg/kg/injection, schedule: Q01DX009 (ip), vehicle: Klucel (hydroxypropylcellulose) (HPC)
[6] = dose: 50.0 mg/kg/injection, schedule: Q01DX009 (ip), vehicle: Klucel (hydroxypropylcellulose) (HPC)
[7] = dose: 100.0 mg/kg/injection, schedule: Q01DX001 (ip), vehicle: Klucel (hydroxypropylcellulose) (HPC)
[8] = dose: 100.0 mg/kg/injection, schedule: Q01DX009 (ip), vehicle: Klucel (hydroxypropylcellulose) (HPC)
[9] = dose: 200.0 mg/kg/injection, schedule: Q01DX009 (ip), vehicle: Klucel (hydroxypropylcellulose) (HPC)
[10] = dose: 50.0 mg/kg/injection, schedule: Q01DX009 (ip), vehicle: saline
[11] = dose: 100.0 mg/kg/injection, schedule: Q01DX009 (ip), vehicle: saline
[12] = dose: 200.0 mg/kg/injection, schedule: Q01DX009 (ip), vehicle: saline
[13] = dose: 100.0 mg/kg/injection, schedule: Q01DX001 (ip), vehicle: saline
[14] = dose: 200.0 mg/kg/injection, schedule: Q01DX001 (ip), vehicle: saline
[15] = dose: 400.0 mg/kg/injection, schedule: Q01DX001 (ip), vehicle: saline
[16] = dose: 50.0 mg/kg/injection, schedule: Q01DX005 (ip), vehicle: saline with Tween-80
[17] = dose: 100.0 mg/kg/injection, schedule: Q01DX005 (ip), vehicle: saline with Tween-80
[18] = dose: 200.0 mg/kg/injection, schedule: Q01DX005 (ip), vehicle: saline with Tween-80
[19] = dose: 50.0 mg/kg/injection, schedule: Q01DX005 (ip), vehicle: saline
[20] = dose: 60.0 mg/kg/injection, schedule: Q01DX005 (ip), vehicle: Klucel (hydroxypropylcellulose) (HPC)
[21] = dose: 120.0 mg/kg/injection, schedule: Q01DX005 (ip), vehicle: Klucel (hydroxypropylcellulose) (HPC)
[22] = dose: 100.0 mg/kg/injection, schedule: Q01DX005 (ip), vehicle: saline
[23] = dose: 200.0 mg/kg/injection, schedule: Q01DX005 (ip), vehicle: saline
[24] = dose: 50.0 mg/kg/injection, schedule: Q01DX005 (ip), vehicle: Klucel (hydroxypropylcellulose) (HPC)
[25] = dose: 100.0 mg/kg/injection, schedule: Q01DX005 (ip), vehicle: Klucel (hydroxypropylcellulose) (HPC)
[26] = dose: 200.0 mg/kg/injection, schedule: Q01DX005 (ip), vehicle: Klucel (hydroxypropylcellulose) (HPC)

Structure (SMILES): C=CCC(C(=O)OCCN(CC)CC)(c1ccccc1)c1ccccc1
- T/C (dose: 0.75 mg/kg/injection, schedule: Q01DX009 (ip), vehicle: saline): 100 % of control
- T/C (dose: 1.5 mg/kg/injection, schedule: Q01DX009 (ip), vehicle: saline): 94 % of control
- T/C (dose: 3.0 mg/kg/injection, schedule: Q01DX009 (ip), vehicle: saline): 100 % of control
- T/C (dose: 6.0 mg/kg/injection, schedule: Q01DX009 (ip), vehicle: saline): 103 % of control
- T/C (dose: 12.0 mg/kg/injection, schedule: Q01DX009 (ip), vehicle: saline): 100 % of control

Structure (SMILES): O=C(c1ccccc1)c1ccccc1NCC(O)COc1ccc(Cl)cc1C(=O)c1ccccc1 (configuration not stated)
- T/C [1]: 91 % of control and 96 % of control
- T/C [2]: 95 % of control
- T/C [3]: 88 % of control and 90 % of control

Structure (SMILES): C/C(=N\NC(=S)Nc1nccs1)c1ccccn1
- T/C (dose: 100.0 mg/kg/injection, schedule: Q04DX003 (ip), vehicle: Klucel (hydroxypropylcellulose) (HPC)): 99 % of control
- T/C (dose: 200.0 mg/kg/injection, schedule: Q04DX003 (ip), vehicle: Klucel (hydroxypropylcellulose) (HPC)): 105 % of control
- T/C (dose: 400.0 mg/kg/injection, schedule: Q04DX003 (ip), vehicle: Klucel (hydroxypropylcellulose) (HPC)): 96 % of control

Structure (SMILES): CCOC(=O)Nc1cc2c(c(N)n1)N=C(CN(C)c1ccccc1)CN2
- T/C (dose: 1.56 mg/kg/injection, schedule: Q01DX009 (ip), vehicle: Klucel (hydroxypropylcellulose) (HPC)): 112 % of control and 123 % of control
- T/C (dose: 3.12 mg/kg/injection, schedule: Q01DX009 (ip), vehicle: Klucel (hydroxypropylcellulose) (HPC)): 100 % of control and 111 % of control
- T/C (dose: 6.25 mg/kg/injection, schedule: Q01DX009 (ip), vehicle: Klucel (hydroxypropylcellulose) (HPC)): 106 % of control and 123 % of control
- T/C [4]: 124 % of control
- T/C [5]: 109 % of control and 123 % of control
- T/C [6]: 98 % of control
- T/C (dose: 67.0 mg/kg/injection, schedule: Q01DX001 (ip), vehicle: Klucel (hydroxypropylcellulose) (HPC)): 195 % of control
- T/C [7]: 178 % of control

Structure (SMILES): Cc1c([N+](=O)[O-])oc2c1C(=O)NCCC2
- T/C [6]: 104 % of control
- T/C [8]: 91 % of control
- T/C [9]: 108 % of control

Structure (SMILES): CC(=O)CC(=O)N(C)C
- T/C [10]: 100 % of control
- T/C [11]: 98 % of control
- T/C [12]: 99 % of control
- T/C (dose: 400.0 mg/kg/injection, schedule: Q01DX009 (ip), vehicle: saline): 99 % of control

Structure (SMILES): Cn1[nH]c(C(C)(C)O)cc1=O
- T/C [13]: 107 % of control
- T/C [14]: 97 % of control
- T/C [15]: 101 % of control

Structure (SMILES): CCCCOP(O)(=S)OCCCC.[Ti]
- T/C [8]: 96 % of control
- T/C [9]: 96 % of control
- T/C (dose: 400.0 mg/kg/injection, schedule: Q01DX009 (ip), vehicle: Klucel (hydroxypropylcellulose) (HPC)): 95 % of control

Structure (SMILES): CCOC(=O)NN(C(=O)OCC)c1c(NC)n(C)c(=O)n(C)c1=O
- T/C [6]: 100 % of control
- T/C [8]: 106 % of control
- T/C [9]: 89 % of control

Structure (SMILES): O=c1nc2c3[nH]cnc3ncn2o1
- T/C [4]: 101 % of control
- T/C [5]: 106 % of control
- T/C [6]: 101 % of control and 93 % of control
- T/C [8]: 105 % of control

Structure (SMILES): Cc1ccc(S(=O)(=O)N/N=C/c2c(Cl)n(C(=O)c3ccccc3F)c3ccccc23)cc1
- T/C (dose: 50.0 mg/kg/injection, schedule: Q01DX001 (ip), vehicle: Klucel (hydroxypropylcellulose) (HPC)): 93 % of control
- T/C [7]: 95 % of control
- T/C (dose: 200.0 mg/kg/injection, schedule: Q01DX001 (ip), vehicle: Klucel (hydroxypropylcellulose) (HPC)): 90 % of control
- T/C (dose: 400.0 mg/kg/injection, schedule: Q01DX001 (ip), vehicle: Klucel (hydroxypropylcellulose) (HPC)): 86 % of control

Structure (SMILES): COc1ccc2sc3cccc(NCCN(C)C)c3c(=O)c2c1
- T/C (dose: 12.5 mg/kg/injection, schedule: Q01DX005 (ip), vehicle: saline with Tween-80): 112 % of control
- T/C (dose: 25.0 mg/kg/injection, schedule: Q01DX005 (ip), vehicle: saline with Tween-80): 108 % of control
- T/C [16]: 100 % of control and 95 % of control
- T/C [17]: 98 % of control and 99 % of control
- T/C [18]: 106 % of control
- T/C (dose: 400.0 mg/kg/injection, schedule: Q01DX005 (ip), vehicle: saline with Tween-80): 98 % of control

Structure (SMILES): O=C1C=CC(=Nc2cc(Cl)c(O)c(Cl)c2)C=C1Cl
- T/C (dose: 12.5 mg/kg/injection, schedule: Q01DX005 (ip), vehicle: saline): 96 % of control
- T/C (dose: 25.0 mg/kg/injection, schedule: Q01DX005 (ip), vehicle: saline): 100 % of control
- T/C [19]: 93 % of control

Structure (SMILES): COc1ccc(C(c2cc3c(cc2O)OCO3)N2CCCC2)c(OC)c1 (configuration not stated)
- T/C [20]: 111 % of control
- T/C [21]: 118 % of control

Structure (SMILES): CC1(C)OC(COCCO)C(COCCO)O1 (configuration not stated)
- T/C [13]: 92 % of control
- T/C [14]: 91 % of control
- T/C [15]: 92 % of control

Structure (SMILES): CC(=O)OC1OC(CS[As](C2CCCCC2)C2CCCCC2)C(OC(C)=O)C(OC(C)=O)C1OC(C)=O (configuration not stated)
- T/C [4]: 104 % of control and 111 % of control
- T/C [5]: 104 % of control and 120 % of control
- T/C [6]: 98 % of control and 101 % of control

Structure (SMILES): COc1ccc(C(=O)Nc2ccccc2-c2ccccc2)cc1OC
- T/C [16]: 105 % of control
- T/C [17]: 97 % of control
- T/C [18]: 103 % of control

Structure (SMILES): CCN(CC)C1=C(C)C2C(C)(C)N=NC12C(=O)OC (configuration not stated)
- T/C [19]: 98 % of control
- T/C [22]: 102 % of control
- T/C [23]: 116 % of control

Structure (SMILES): CC(C)CNC(=O)NCCCCCCNC(=O)NCC(C)C
- T/C [1]: 94 % of control
- T/C [2]: 93 % of control
- T/C [3]: 93 % of control

Structure (SMILES): COc1cc2c[n+]3c4c(cccc4c2cc1OC)CC3
- T/C (dose: 25.0 mg/kg/injection, schedule: Q01DX009 (ip), vehicle: water): 108 % of control
- T/C (dose: 50.0 mg/kg/injection, schedule: Q01DX009 (ip), vehicle: water): 118 % of control
- T/C (dose: 100.0 mg/kg/injection, schedule: Q01DX009 (ip), vehicle: water): 114 % of control

Structure (SMILES): COc1ccc(Cl)cc1NC(=O)c1ccccc1F
- T/C [6]: 120 % of control
- T/C [8]: 104 % of control
- T/C [9]: 118 % of control

Structure (SMILES): CCOP(=O)(Nc1ccccc1OC)OCC
- T/C [10]: 104 % of control
- T/C [13]: 110 % of control
- T/C [11]: 107 % of control
- T/C [14]: 105 % of control
- T/C [12]: 100 % of control
- T/C [15]: 102 % of control

Structure (SMILES): CCOC(=O)c1cnc2cc3c(cc2c1Nc1cccc(C)c1C)OCO3
- T/C [20]: 101 % of control
- T/C [21]: 101 % of control
- T/C (dose: 240.0 mg/kg/injection, schedule: Q01DX005 (ip), vehicle: Klucel (hydroxypropylcellulose) (HPC)): 95 % of control

Structure (SMILES): CCOC(=O)c1ccnc2ccc3ccccc3c12
- T/C [24]: 105 % of control
- T/C [25]: 102 % of control
- T/C [26]: 96 % of control

Structure (SMILES): CCOC(=O)c1ccc(NC(=S)N(CCC#N)C2CCCCC2)cc1
- T/C [6]: 93 % of control
- T/C [8]: 102 % of control
- T/C [9]: 98 % of control

Structure (SMILES): CC1(C)Oc2ccc3ccccc3c2C(c2ccc(O)cc2)=C1c1ccccc1
- T/C [24]: 103 % of control
- T/C [25]: 99 % of control
- T/C [26]: 94 % of control

Structure (SMILES): O=C(CCBr)NCCNC(=O)CCBr
- T/C (dose: 43.75 mg/kg/injection, schedule: Q01DX009 (ip), vehicle: saline): 105 % of control
- T/C (dose: 87.5 mg/kg/injection, schedule: Q01DX009 (ip), vehicle: saline): 103 % of control
- T/C (dose: 175.0 mg/kg/injection, schedule: Q01DX009 (ip), vehicle: saline): 108 % of control

Structure (SMILES): COc1nc2c(c(O)cn2C2OCC(OC(C)=O)C(OC(C)=O)C2OC(C)=O)c(=O)n1C (configuration not stated)
- T/C (dose: 100.0 mg/kg/injection, schedule: Q01DX001 (ip), vehicle: saline with Tween-80): 106 % of control
- T/C (dose: 200.0 mg/kg/injection, schedule: Q01DX001 (ip), vehicle: saline with Tween-80): 92 % of control
- T/C (dose: 400.0 mg/kg/injection, schedule: Q01DX001 (ip), vehicle: saline with Tween-80): 99 % of control

Structure (SMILES): CC(CC(=O)O)C(C)(C#N)C(=O)O (configuration not stated)
- T/C [19]: 102 % of control and 110 % of control
- T/C [22]: 91 % of control and 96 % of control
- T/C [23]: 96 % of control
